Data reported in patent US9763445B2, “Safened herbicidal compositions comprising a pyridine carboxylic acid herbicide” (Dow AgroSciences, LLC, priority 2014, dated 2017).

Assays:
winter rape (BRSNW) = test: Postemergence greenhouse trial, % visual injury on winter rape; assay type: in vivo, Brassica napus; details: for % visual injury, Ob: BRSNW
How it was run: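 Visual injury, 0 (none) to 100 (complete kill), rated 20-22 d after overhead track-sprayer application at 187 L/ha; Colby's equation gave expected mixture responses. Herbicide (g ae/ha) and cloquintocet-mexyl safener (g ai/ha) diluted in aqueous 1.5% v/v Agri-dex, applied to weeds at 2–3 true leaves.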

pigweed (AMARE) = test: Postemergence greenhouse trial, % visual injury on pigweed; assay type: in vivo, Amaranthus retroflexus; details: for % visual injury, Ob / % visual injury, observed (Ob): AMARE
How it was run: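 Injury was scored visually (0 = none, 100 = complete kill) 20–22 d after track-sprayer application at 187 L/ha, compared with solvent-sprayed controls. Test plants at the 2–3 true leaf stage; herbicide (g ae/ha) plus cloquintocet-mexyl safener (g ai/ha) in crop-oil-containing spray; expected mixture response by Colby.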

Russian thistle (SASKR) = test: Postemergence greenhouse trial, % visual injury on Russian thistle; assay type: in vivo, Salsola kali; details: SASKR
[1] = compound 0 g/ha, CQC-m 4.375 g/ha
[2] = compound 0 g/ha, CQC-m 8.75 g/ha
[3] = compound 0 g/ha, CQC-m 17.5 g/ha

CCCCCC(C)OC(=O)COc1ccc(Cl)c2cccnc12 (stereo not shown) [CQC-m, cloquintocet-mexyl, reference compound]
0%: % visual injury, Ob (winter rape (BRSNW); 4.375 g/ha, applied alone) | % visual injury, Ob (winter rape (BRSNW); 8.75 g/ha, applied alone) | % visual injury, Ob (winter rape (BRSNW); 17.5 g/ha, applied alone) | % visual injury, Ob (winter rape (BRSNW); 35 g/ha, applied alone) | % visual injury, Ob (winter rape (BRSNW); 70 g/ha, applied alone) | % visual injury, Ob (winter rape (BRSNW); compound 0, CQC-m 4.375 g/ha) | % visual injury, Ob (winter rape (BRSNW); compound 0, CQC-m 8.75 g/ha) | % visual injury, Ob (winter rape (BRSNW); compound 0, CQC-m 17.5 g/ha) | % visual injury, Ob (winter rape (BRSNW); compound 0, CQC-m 35 g/ha) | % visual injury, Ob (winter rape (BRSNW); compound 0, CQC-m 70 g/ha) | % visual injury, Ob (winter rape (BRSNW); [1]) | % visual injury, Ob (winter rape (BRSNW); [2]) | % visual injury, Ob (winter rape (BRSNW); [3]) | % visual injury, Ob (winter rape (BRSNW); compound 0 g/ha, CQC-m 35 g/ha) | % visual injury, Ob (winter rape (BRSNW); compound 0 g/ha, CQC-m 70 g/ha) | plant injury at 4.375 g/ha (winter rape (BRSNW); Brassica napus, post-emergence, alone, 4.375 g/ha, read-out: % visual injury, Ob) | plant injury at 8.75 g/ha (winter rape (BRSNW); Brassica napus, post-emergence, alone, 8.75 g/ha, read-out: % visual injury, Ob) | plant injury at 17.5 g/ha (winter rape (BRSNW); Brassica napus, post-emergence, alone, 17.5 g/ha, read-out: % visual injury, Ob) | plant injury at 35 g/ha (winter rape (BRSNW); Brassica napus, post-emergence, alone, 35 g/ha, read-out: % visual injury, Ob) | plant injury at 70 g/ha (winter rape (BRSNW); Brassica napus, post-emergence, alone, 70 g/ha, read-out: % visual injury, Ob) | % visual injury, Ob (pigweed (AMARE); 4.375 g/ha, applied alone) | % visual injury, Ob (pigweed (AMARE); 8.75 g/ha, applied alone) | % visual injury, Ob (pigweed (AMARE); 17.5 g/ha, applied alone) | % visual injury, Ob (pigweed (AMARE); 35 g/ha, applied alone) | % visual injury, Ob (pigweed (AMARE); 70 g/ha, applied alone) | % visual injury, Ob (pigweed (AMARE); compound 0, CQC-m 4.375 g/ha) | % visual injury, Ob (pigweed (AMARE); compound 0, CQC-m 8.75 g/ha) | % visual injury, Ob (pigweed (AMARE); compound 0, CQC-m 17.5 g/ha) | % visual injury, Ob (pigweed (AMARE); compound 0, CQC-m 35 g/ha) | % visual injury, Ob (pigweed (AMARE); compound 0, CQC-m 70 g/ha) | % visual injury, Ob (pigweed (AMARE); [1]) | % visual injury, Ob (pigweed (AMARE); [2]) | % visual injury, Ob (pigweed (AMARE); [3]) | % visual injury, Ob (pigweed (AMARE); compound 0 g/ha, CQC-m 35 g/ha) | % visual injury, Ob (pigweed (AMARE); compound 0 g/ha, CQC-m 70 g/ha) | % visual injury, observed (Ob) (pigweed (AMARE); safener alone 2.5 g/ha) | % visual injury, observed (Ob) (pigweed (AMARE); safener alone 5 g/ha) | % visual injury, observed (Ob) (pigweed (AMARE); safener alone 10 g/ha) | % visual injury, observed (Ob) (pigweed (AMARE); safener alone 20 g/ha) | pest or weed control at 4.375 g/ha (pigweed (AMARE); Amaranthus retroflexus, post-emergence, alone, 4.375 g/ha, read-out: % visual injury, Ob) | pest or weed control at 8.75 g/ha (pigweed (AMARE); Amaranthus retroflexus, post-emergence, alone, 8.75 g/ha, read-out: % visual injury, Ob) | pest or weed control at 17.5 g/ha (pigweed (AMARE); Amaranthus retroflexus, post-emergence, alone, 17.5 g/ha, read-out: % visual injury, Ob) | pest or weed control at 20 g/ha (pigweed (AMARE); Amaranthus retroflexus, post-emergence, alone, 20 g/ha, read-out: % visual injury, Ob) | pest or weed control at 35 g/ha (pigweed (AMARE); Amaranthus retroflexus, post-emergence, alone, 35 g/ha, read-out: % visual injury, Ob) | pest or weed control at 40 g/ha (pigweed (AMARE); Amaranthus retroflexus, post-emergence, alone, 40 g/ha, read-out: % visual injury, Ob) | pest or weed control at 70 g/ha (pigweed (AMARE); Amaranthus retroflexus, post-emergence, alone, 70 g/ha, read-out: % visual injury, Ob) | pest or weed control at 80 g/ha (pigweed (AMARE); Amaranthus retroflexus, post-emergence, alone, 80 g/ha, read-out: % visual injury, Ob) | % visual injury, Δ (pigweed (AMARE); alone, 35 g/ha) | % visual injury, Ob (Russian thistle (SASKR); 4.375 g/ha, applied alone) | % visual injury, Ob (Russian thistle (SASKR); 8.75 g/ha, applied alone) | % visual injury, Ob (Russian thistle (SASKR); 17.5 g/ha, applied alone) | % visual injury, Ob (Russian thistle (SASKR); 35 g/ha, applied alone) | % visual injury, Ob (Russian thistle (SASKR); 70 g/ha, applied alone) | % visual injury, Ob (Russian thistle (SASKR); compound 0, CQC-m 4.375 g/ha) | % visual injury, Ob (Russian thistle (SASKR); compound 0, CQC-m 8.75 g/ha) | % visual injury, Ob (Russian thistle (SASKR); compound 0, CQC-m 17.5 g/ha) | % visual injury, Ob (Russian thistle (SASKR); compound 0, CQC-m 35 g/ha) | % visual injury, Ob (Russian thistle (SASKR); compound 0, CQC-m 70 g/ha) | % visual injury, Ob (Russian thistle (SASKR); [1]) | % visual injury, Ob (Russian thistle (SASKR); [2]) | % visual injury, Ob (Russian thistle (SASKR); [3]) | % visual injury, Ob (Russian thistle (SASKR); compound 0 g/ha, CQC-m 35 g/ha) | % visual injury, Ob (Russian thistle (SASKR); compound 0 g/ha, CQC-m 70 g/ha) | % visual injury, observed (Ob) (Russian thistle (SASKR); compound 8 0 + CQC-m 4.375 g/ha)
